{
  "source": "patent US11207379B2",
  "about": "“Peptides with anti-cancer activity” (IDP DISCOVERY PHARMA, S.L., priority 2016, dated 2021)",
  "type_in_all_cases": "cell-based",
  "key": {"[1]": {"target": "MM.1S, B Lymphoblast (multiple myeloma)", "test": "Viability assay (MTT, Alamar Blue, hexosaminidase), 72 h", "details": "MM.1S cells, read-out: EC50", "method": "MM.1S, B Lymphoblast (multiple myeloma), ATCC: CRL-2974\n(§1) Cell lines A549, MCF-7 and RAMOS were cultured in incubator under CO2 (6%) at 37° C. in DMEM high glucose (Dulbecco's Modified Eagle Solution, Gibco-BRL 31966-21) medium with 10% fetal bovine serum inactivated (FBS) (Gibco-BRL 10106-169). Cell lines HL-60 and MM.1S were cultured in incubator at 37° C. in RPMI-1640 (Sigma R8758) medium with 10% of fetal bovine serum inactivated (FBS) and 2 mM glutamine (Sigma G7513). Cell lines BJ were cultured in incubator under CO2 (6%) at 37° C. in Eagle's Minimum Essential Medium (Sigma, M-2279) with 10% fetal bovine serum inactivated (FBS) (Gibco-BRL 10106-169).\n(§2) During the amplification step and the assays adherent cells were rinsed with DPBS (Dulbecco's Phosphate Buffered Saline, Sigma D1283) three times and afterward treated for 5 minutes with trypsin ([…]) (Gibco-BRL, 15400054) in solution of DPBS at 37° C., and, once detached, transferred in the culturing medium. No-adherent cells were centrifuged and transferred in the culturing medium. Cells were counted in a Neubauer chamber after labelling with Tripan-Blue.\n(§3) A549, MCF-7 and JB cells were seeded at a density of 5000 cells/well and HL-60, MM.1S and Ramos at 10000 cells/well in 100 μl of medium in 96 well plates. After 24 h, the compounds to be tested were added to calculate the dose/response curve at the starting concentration of 100 μM with serial dilutions (1:1). Controls are the untreated cells. Each experiment was performed in triplicate.\n(§4) Cells were incubated during 72 h in incubator under CO2 atmosphere at 37° C. Cell viability was measured by means of MTT (3-(4,5-dimethylthiazol-2-yl)-2.5-diphenyltetrazolium bromide) assay, Alamar Blue® (Biosource DAL1100) and Hexosaminidase activity test, consecutively, following manufacturer instructions.\n(§5) MTT: 1. Stock solution of MTT (475989 Calbiochem) was 5 mg/ml in PBS 1×. As negative control (experiment noise) 3 wells were treated with 20 μl/well of a solution of SDS 10% in H2O. The same control was used for Alamar Blue/Hexosaminidase. 10 μl/well of MTT solution were added and the plate was incubated for 3-4 hr. The medium was discarded and 100 μl of extracting buffer (PBS 1×, 15% SDS, 50% […] N,N-Dimethylformamide, pH 4.7) were added to each well. Plates were incubated for 16 h at room temperature under orbital shaking. Absorbance at 570 nm was finally measured.\n(§6) Alamar Blue: 10 μl Alamar Blue solution was added to each well and the plates were incubated for […] in the incubator. Fluorescence ratio at 535/590 (excitation/emission) was measured in Cytofluor (Millipore) fluorimeter. Blank control was determined by lysis of untreated cells with con 2% of Triton X100, right before adding Alamar Blue solution.\n(§7) Hexosaminidase activity test: after Alamar Blue lecture, medium was discarded and plates were rinsed once with PBS. 60 μl hexosaminidase substrate (p-nitrophenol-N-acetyl-beta-D-glucosamide 7.5 mM [Sigma N-9376], sodium citrate 0.1 M, pH 5.0, 0.25% Triton X-100) was added to each well and the plates were incubated at 37° C. for 2-5 h, according to the cell type (hexosaminidase activity changes according to the cell type). […] Blank control was the same as described before.\n(§8) Data analysis was performed calculating the percentage of cell viability normalized vs. the values of negative control, which was considered equal to 100%. The dose/response curve was fitted through the sigmoidal equation dose-response (variable slope) and the EC50 values were calculated as follow: Y=Bottom+(Top−Bottom)/(1+10^{[(Log EC50−X)*HillSlope]},"}, "[2]": {"target": "HL-60, promyeloblast (acute myelocytic leukemia, AML)", "test": "Viability assay (MTT, Alamar Blue, hexosaminidase), 72 h", "details": "HL-60 cells, read-out: EC50", "method": "HL-60, promyeloblast (acute myelocytic leukemia, AML), ECACC: 98070106\nas §1, §2, §3, §4, §5, §6, §7, §8"}, "[3]": {"target": "A549, epithelial (lung cancer)", "test": "Viability assay (MTT, Alamar Blue, hexosaminidase), 72 h", "details": "A549 cells, read-out: EC50", "method": "A549, epithelial (lung cancer), ATCC:CCL-185\nas §1, §2, §3, §4, §5, §6, §7, §8"}, "[4]": {"target": "RAMOS, B lymphocyte (Burkitt's Lymphoma)", "test": "Viability assay (MTT, Alamar Blue, hexosaminidase), 72 h", "details": "Ramos cells, read-out: EC50", "method": "RAMOS, B lymphocyte (Burkitt's Lymphoma), ATCC: CRL-1596\nas §1, §2, §3, §4, §5, §6, §7, §8"}, "[5]": {"target": "MCF-7, epithelial (breast cancer)", "test": "Viability assay (MTT, Alamar Blue, hexosaminidase), 72 h", "details": "MCF7 cells, read-out: EC50", "method": "MCF-7, epithelial (breast cancer), ECACC: 86012803\nas §1, §2, §3, §4, §5, §6, §7, §8"}, "[6]": {"test_system": "JB healthy cells (BJ, fibroblast, normal skin)", "test": "Viability assay (MTT, Alamar Blue, hexosaminidase), 72 h", "method": "BJ, fibroblast (normal skin), ATCC® CRL-2522™\nas §1\nas §2, with “No-adherent cells were centrifuged and transferred in the culturing medium.” left out, “Tripan-Blue. […]” for “Tripan-Blue.”\nas §4, with “instructions. […]” for “instructions.”"}, "HL-60 cells": {"test_system": "HL-60 cells", "test": "Annexin V assay by flow cytometry", "details": "for Percentage of HL-60 gated cells (positive to Annexin V): compound at EC30, control = 100%", "method": "(§9) Miltenyi Biotec Annexin V-FITC Kit was used. To detect apoptosis in early stage Phosphatidylserine in plasmatic membrane localization was measured, though the calcium dependent reaction with Annexine V. Annexin V molecules were labelled with different fluorophores (FITC) and analyzed by FACS. To detect apoptosis in late stage DNA-intercalating agents, such Propidium iodide (PI) were used.\n(§10) Cells were seeded at a density range of 150000-30000 cells/well in 12 wells plates, and incubated at 37° C. in the incubator under CO2 atmosphere. After 24 h, treatments at 4 h, 8 h, 18 h, 48 h and 72 h were performed in cell lines A549, HL-60 and MM.1S, at IC30 and/or IC80, with compounds IDP-S09 and IL-09, in cell lines HL-60 and MM.1S with compound IDP-S04 and in cell line A549 with compounds IDP-S02 and IDP-S03. Staurosporine and compound 100258-F4 (Sigma) were used as positive control and reference compound, respectively."}, "MM.1S cells": {"test_system": "MM.1S cells", "test": "Annexin V assay by flow cytometry", "method": "as §9, §10"}, "A549 cells": {"test_system": "A549 cells", "test": "Annexin V assay by flow cytometry", "method": "as §9\nas §10, with “treatments at 4 h, 8 h, 18 h, 48 h and 72 h were performed in cell lines” left out"}, "[7]": {"details": "4 h, compound at EC30, control = 100%"}, "[8]": {"details": "4 h, compound at EC80, control = 100%"}},
  "note": "Numbered stars: 1 amine (or outer) side, 2 acyl side, 3 side chain; on linkers, the order of the positions; unused ones are H or OH. Peptide text beside a SMILES is read from it. Suc = O=C(CCC(=O)[*:2])[*:1]",
  "data": [
    {"smiles": "CC[C@H](C)[C@H](NC(=O)[C@H](Cc1ccc(O)cc1)NC(=O)[C@H](C)NC(=O)[C@H](CC(C)C)NC(=O)[C@H](C)NC(=O)[C@H](CCCCN)NC(=O)[C@H](CCCCN)NC(=O)[C@H](Cc1ccccc1)NC(=O)[C@@H](NC(=O)[C@@H](NC(=O)[C@@H](NC(=O)[C@H](CCCCN)NC(=O)[C@@H]1CCCN1C(=O)[C@H](C)NC(=O)[C@H](CCCNC(=N)N)NC(=O)[C@H](CCCNC(=N)N)NC(=O)[C@H](CCCNC(=N)N)NC(=O)[C@H](CCCNC(=N)N)NC(=O)[C@H](CCCNC(=N)N)NC(=O)[C@H](CCCNC(=N)N)NC(=O)[C@H](CCCNC(=N)N)NC(=O)CCC(=O)O)[C@@H](C)CC)C(C)C)[C@@H](C)CC)C(N)=O", "note": "[IDP-L09] (Suc-RRRRRRRAPKIVIFKKALAYI-NH2)", "values": [
      {"measurement": "EC50", "setting": "[1]", "value": "25 ± 1", "unit": "µM"},
      {"measurement": "EC50", "setting": "[2]", "value": "46 ± 6", "unit": "µM"},
      {"measurement": "EC50", "setting": "[3]", "value": "48 ± 5", "unit": "µM"},
      {"measurement": "EC50", "setting": "[4]", "value": "28 ± 1", "unit": "µM"},
      {"measurement": "EC50", "setting": "[5]", "value": "~28", "unit": "µM"},
      {"measurement": "EC50", "setting": "[6]", "value": "> 100", "unit": "µM"},
      {"measurement": "Percentage of HL-60 gated cells (positive to Annexin V)", "setting": "HL-60 cells; 48 h", "value": 590, "unit": "%"},
      {"measurement": "Percentage of HL-60 gated cells (positive to Annexin V)", "setting": "HL-60 cells; 72 h", "value": 230, "unit": "%"},
      {"measurement": "apoptosis induction (Annexin V by FACS), in words", "setting": "HL-60 cells; HL-60 cells", "value": "apoptosis induction is significant after 48 h and 72 h at low concentrations (IC30)"},
      {"measurement": "Percentage of MM.1S gated cells (positive to Annexin V)", "setting": "MM.1S cells; [7]", "value": 50, "unit": "%"},
      {"measurement": "Percentage of MM.1S gated cells (positive to Annexin V)", "setting": "MM.1S cells; [8]", "value": 50, "unit": "%"},
      {"measurement": "Percentage of MM.1S gated cells (positive to Annexin V)", "setting": "MM.1S cells; 8 h, compound at EC30, control = 100%", "value": 220, "unit": "%"},
      {"measurement": "Percentage of MM.1S gated cells (positive to Annexin V)", "setting": "MM.1S cells; 8 h, compound at EC80, control = 100%", "value": 310, "unit": "%"},
      {"measurement": "Percentage of MM.1S gated cells (positive to Annexin V)", "setting": "MM.1S cells; 48 h, compound at EC30, control = 100%", "value": 190, "unit": "%"},
      {"measurement": "Percentage of MM.1S gated cells (positive to Annexin V)", "setting": "MM.1S cells; 72 h, compound at EC30, control = 100%", "value": 500, "unit": "%"},
      {"measurement": "apoptosis induction (Annexin V by FACS), in words", "setting": "MM.1S cells; MM.1S cells", "value": "induces apoptosis at 8 h, 48 h and 72 h at low concentration (IC30) and at 8 h at high concentration (IC80)"},
      {"measurement": "Percentage of A549 gated cells (positive to Annexin V)", "setting": "A549 cells; [7]", "value": 900, "unit": "%"},
      {"measurement": "Percentage of A549 gated cells (positive to Annexin V)", "setting": "A549 cells; [8]", "value": 2400, "unit": "%"},
      {"measurement": "Percentage of A549 gated cells (positive to Annexin V)", "setting": "A549 cells; 16 h, compound at EC30, control = 100%", "value": 400, "unit": "%"},
      {"measurement": "Percentage of A549 gated cells (positive to Annexin V)", "setting": "A549 cells; 16 h, compound at EC80, control = 100%", "value": 950, "unit": "%"},
      {"measurement": "apoptosis induction (Annexin V by FACS), in words", "setting": "A549 cells; A549 cells", "value": "fast induction (4 h) is observed"}
    ]}
  ]
}
